The target of this test is T1, recombinant guanylate cyclase reporter cell line (Rattus norvegicus, UniProt P19686+P20595).
T1 construct: expressed in transfected cells
T1 sequence (P19686 1-690): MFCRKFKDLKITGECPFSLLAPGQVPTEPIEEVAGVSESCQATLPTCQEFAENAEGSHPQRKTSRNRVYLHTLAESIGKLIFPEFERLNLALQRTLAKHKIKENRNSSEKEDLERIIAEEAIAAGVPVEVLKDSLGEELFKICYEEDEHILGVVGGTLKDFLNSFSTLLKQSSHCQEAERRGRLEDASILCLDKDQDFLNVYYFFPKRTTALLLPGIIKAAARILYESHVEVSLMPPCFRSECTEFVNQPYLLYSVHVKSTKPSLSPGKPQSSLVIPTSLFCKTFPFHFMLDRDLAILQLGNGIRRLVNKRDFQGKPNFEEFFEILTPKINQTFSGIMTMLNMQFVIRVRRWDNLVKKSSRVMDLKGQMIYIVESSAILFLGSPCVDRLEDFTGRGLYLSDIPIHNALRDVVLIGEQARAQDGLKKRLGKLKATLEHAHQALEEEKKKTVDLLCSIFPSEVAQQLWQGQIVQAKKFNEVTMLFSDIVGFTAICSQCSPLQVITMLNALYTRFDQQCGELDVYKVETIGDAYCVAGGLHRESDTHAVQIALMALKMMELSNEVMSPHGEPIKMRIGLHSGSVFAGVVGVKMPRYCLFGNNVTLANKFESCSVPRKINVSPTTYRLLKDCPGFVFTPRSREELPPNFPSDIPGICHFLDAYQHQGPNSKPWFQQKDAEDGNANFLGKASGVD
T1 sequence (P20595 1-619): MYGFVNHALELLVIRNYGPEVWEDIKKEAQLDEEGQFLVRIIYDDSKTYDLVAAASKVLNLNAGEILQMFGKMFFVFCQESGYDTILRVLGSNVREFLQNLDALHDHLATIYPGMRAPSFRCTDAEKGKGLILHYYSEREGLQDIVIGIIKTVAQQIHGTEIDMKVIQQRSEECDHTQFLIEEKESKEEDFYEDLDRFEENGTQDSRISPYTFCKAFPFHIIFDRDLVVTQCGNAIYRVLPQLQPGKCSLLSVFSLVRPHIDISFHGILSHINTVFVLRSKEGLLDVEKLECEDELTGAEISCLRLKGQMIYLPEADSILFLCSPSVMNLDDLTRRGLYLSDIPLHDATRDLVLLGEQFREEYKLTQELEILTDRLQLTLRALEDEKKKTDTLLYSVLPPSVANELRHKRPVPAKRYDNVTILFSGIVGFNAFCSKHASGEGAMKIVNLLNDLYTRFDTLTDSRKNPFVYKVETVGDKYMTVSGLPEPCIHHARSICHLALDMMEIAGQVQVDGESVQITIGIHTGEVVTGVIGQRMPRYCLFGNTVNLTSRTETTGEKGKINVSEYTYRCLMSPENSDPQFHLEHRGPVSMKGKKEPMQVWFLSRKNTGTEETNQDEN
In words: Effect on a recombinant guanylate cyclase reporter cell line (B-2). It is filed as cell-based. The following applies: in some cases mean values for individual determinations. As to the method:
B-2. Effect on a Recombinant Guanylate Cyclase Reporter Cell Line
The cellular effect of the inventive compounds is determined using a recombinant guanylate cyclase reporter cell line, as described in F. Wunder et al., Anal. Biochem. 339, 104-112 (2005).
Representative MEC values (MEC=minimum effective concentration) for the inventive compounds are shown in the table below (in some cases as mean values for individual determinations): […]

The record followed here is US9422285B2, “Substituted pyrazolo[1,5-A]-pyridine-3-carboxamides and use thereof” (Bayer Pharma Aktiengesellschaft, priority 2014, dated 2016).

Each structure is given as a SMILES string. Counter-ions that a name gives are not always drawn.

In the case of `CCCC(C)(N)CNC(=O)c1cnn2c(OCc3c(F)cccc3F)cc(C)cc12` (single isomer, unassigned) [Example 53, ent-N-(2-Amino-2-methylpentyl)-7-[(2,6-difluorobenzyl)oxy]-5-methylpyrazolo[1,5-a]pyridine-3-carboxamide], the “MEC (minimum effective concentration)” value was 3.0 µM.

Take `Cc1cc(OCc2c(F)cccc2F)n2nc(C)c(C(=O)NC3CCOc4ccccc43)c2c1` (racemic) [Example 87, rac-7-[(2,6-Difluorobenzyl)oxy]-N-(3,4-dihydro-2H-chromen-4-yl)-2,5-dimethylpyrazolo[1,5-a]pyridine-3-carboxamide]: the “MEC (minimum effective concentration)” value amounted to 0.3 µM.

Turning to `Cc1cc(OCc2c(F)cccc2F)n2nc(C)c(C(=O)NCC(C)(N)CF)c2c1` (single isomer, unassigned) [Example 40, ent-N-(2-Amino-3-fluoro-2-methylpropyl)-7-[(2,6-difluorobenzyl)oxy]-2,5-dimethylpyrazolo[1,5-a]pyridine-3-carboxamide], the “MEC (minimum effective concentration)” value worked out at 1.0 µM.

As to `COC(=O)C12CCC(NC(=O)c3c(C)nn4c(OCc5c(F)cccc5F)cc(C)cc34)(CC1)CC2` [Example 152, methyl 4-[({7-[(2,6-difluorobenzyl)oxy]-2,5-dimethylpyrazolo[1,5-a]pyridin-3-yl}carbonyl)amino]bicyclo[2.2.2]octane-1-carboxylate], the “MEC (minimum effective concentration)” value stood at 0.3 µM.

For the compound `Cc1cc(OCc2c(F)cccc2F)n2nc(C)c(C(=O)NCC3CSCCN3)c2c1` (racemic) [Example 88, rac-7-[(2,6-Difluorobenzyl)oxy]-2,5-dimethyl-N-(thiomorpholin-3-ylmethyl)pyrazolo[1,5-a]pyridine-3-carboxamide], the “MEC (minimum effective concentration)” value is 1.0 µM.

Take `CSCCC(N)CNC(=O)c1c(C)nn2c(OCc3c(F)cccc3F)cc(C)cc12` (racemic) [Example 156, rac-N-[2-Amino-4-(methylsulphanyl)butyl]-7-[(2,6-difluorobenzyl)oxy]-2,5-dimethylpyrazolo[1,5-a]pyridine-3-carboxamide]: the “MEC (minimum effective concentration)” value stood at 0.3 µM.

As to `Cc1cc(OCc2c(F)cccc2F)n2nc(C)c(C(=O)NCC(C)(N)CCCF)c2c1` (single isomer, unassigned) [Example 45, ent-N-(2-Amino-5-fluoro-2-methylpentyl)-7-[(2,6-difluorobenzyl)oxy]-2,5-dimethylpyrazolo[1,5-a]pyridine-3-carboxamide], the “MEC (minimum effective concentration)” value turned out to be 0.3 µM.

Turning to `CCC(C)(N)CNC(=O)c1c(C2CC2)nn2c(OCc3c(F)cccc3F)cc(C)cc12` (single isomer, unassigned) [Example 54, ent-N-(2-Amino-2-methylbutyl)-2-cyclopropyl-7-[(2,6-difluorobenzyl)oxy]-5-methylpyrazolo[1,5-a]pyridine-3-carboxamide], the “MEC (minimum effective concentration)” value stood at 0.3 µM.

In the case of `Cc1cc(OCc2c(F)cccc2F)n2nc(C)c(C(=O)NC3CCOc4c(C)cc(F)cc43)c2c1` (racemic) [Example 148, rac-7-[(2,6-Difluorobenzyl)oxy]-N-(6-fluoro-8-methyl-3,4-dihydro-2H-chromen-4-yl)-2,5-dimethylpyrazolo[1,5-a]pyridine-3-carboxamide], the “MEC (minimum effective concentration)” value worked out at 1.0 µM.

Regarding `Cc1cc(OCc2c(F)cccc2F)n2nc(C)c(C(=O)NC3CCC3(C)N)c2c1` (racemic) [Example 91, rac-N-(2-Amino-2-methylcyclobutyl)-7-[(2,6-difluorobenzyl)oxy]-2,5-dimethylpyrazolo[1,5-a]pyridine-3-carboxamide], the “MEC (minimum effective concentration)” value was 3.0 µM.

`CCCC(C)(N)CNC(=O)c1c(C)nn2c(OCC3CCCCC3)cc(C)cc12` (racemic) [Example 159, rac-N-(2-Amino-2-methylpentyl)-7-(cyclohexylmethoxy)-2,5-dimethylpyrazolo[1,5-a]pyridine-3-carboxamide]: the “MEC (minimum effective concentration)” value worked out at 3.0 µM.

Take `Cc1cc(OCc2c(F)cccc2F)n2nc(C)c(C(=O)Nc3ccc(N4CCNCC4)c(C(F)(F)F)c3)c2c1` [Example 125, 7-[(2,6-Difluorobenzyl)oxy]-2,5-dimethyl-N-[4-(piperazin-l-yl)-3-(trifluoromethyl)phenyl]pyrazolo[1,5-a]pyridine-3-carboxamide]: the “MEC (minimum effective concentration)” value worked out at 3.0 µM.

As for `Cc1cc(OCc2c(F)cccc2F)n2nc(C)c(C(=O)N[C@H](CO)c3ccc(C)o3)c2c1` [Example 178, 7-[(2,6-Difluorobenzyl)oxy]-N-[(1R)-2-hydroxy-1-(5-methyl-2-furyl)ethyl]-2,5-dimethylpyrazolo[1,5-a]pyridine-3-carboxamide], the “MEC (minimum effective concentration)” value was determined as 1.0 µM.

As to `Cc1cc(OCc2c(F)cccc2F)n2nc(C)c(C(=O)N[C@@H]3COC[C@@H]3N)c2c1` (relative stereo) [Example 69, rel-N-[(3R,4S)-4-Aminotetrahydrofuran-3-yl]-7-[(2,6-difluorobenzyl)oxy]-2,5-dimethylpyrazolo[1,5-a]pyridine-3-carboxamide], the “MEC (minimum effective concentration)” value came to 10 µM.

In the case of `Cc1cc(OCc2c(F)cccc2F)n2nc(C)c(C(=O)NC3CC[C@@H]4NCC[C@H]34)c2c1` (relative stereo) [Example 122, rel-7-[(2,6-Difluorobenzyl)oxy]-2,5-dimethyl-N-[(3aR,6aR)-octahydrocyclopenta[b]pyrrol-4-yl]pyrazolo[1,5-a]pyridine-3-carboxamide], the “MEC (minimum effective concentration)” value was 10 µM.

As to `Cc1cc(OCc2c(F)ccc(F)c2F)n2nc(C)c(C(=O)NC(C#N)c3ccc(Cl)cc3)c2c1` (stereo not shown) [Example 34, N-[(4-Chlorophenyl)(cyano)methyl]-2,5-dimethyl-7-[(2,3,6-trifluorobenzyl)oxy]pyrazolo[1,5-a]pyridine-3-carboxamide], the “MEC (minimum effective concentration)” value amounted to 1.0 µM.

For `Cc1cc(OCc2c(F)cccc2F)n2nc(C)c(C(=O)NCCS(N)(=O)=O)c2c1` [Example 61, 7-[(2,6-Difluorobenzyl)oxy]-2,5-dimethyl-N-(2-sulphamoylethyl)pyrazolo[1,5-a]pyridine-3-carboxamide], the “MEC (minimum effective concentration)” value is 10 µM.

As to `Cc1cc(OCc2c(F)cccc2F)n2nc(C)c(C(=O)NN3CCOCC3)c2c1` [Example 135, 7-[(2,6-Difluorobenzyl)oxy]-2,5-dimethyl-N-(morpholin-4-yl)pyrazolo[1,5-a]pyridine-3-carboxamide], the “MEC (minimum effective concentration)” value was 3.0 µM.

Regarding `Cc1cc(OCc2c(F)ccc(F)c2F)n2nc(C)c(C(=O)Nc3c(C(F)(F)F)n[nH]c3C)c2c1` [Example 20, 2,5-Dimethyl-N-[5-methyl-3-(trifluoromethyl)-1H-pyrazol-4-yl]-7-[(2,3,6-trifluorobenzyl)oxy]pyrazolo[1,5-a]pyridine-3-carboxamide], the “MEC (minimum effective concentration)” value amounted to 0.3 µM.

As for `Cc1cc(OCc2c(F)cccc2F)n2nc(C)c(C(=O)N[C@H]3c4ccccc4C[C@H]3O)c2c1` [Example 71, 7-[(2,6-Difluorobenzyl)oxy]-N-[(1S,2R)-2-hydroxy-2,3-dihydro-1H-inden-1-yl]-2,5-dimethylpyrazolo[1,5-a]pyridine-3-carboxamide trifluoroacetate], the “MEC (minimum effective concentration)” value worked out at 0.3 µM.

With `Cc1cc(OCc2c(F)ccc(F)c2F)n2nc(C)c(C(=O)NCc3ccc(Cl)nc3)c2c1` [Example 21, N-[(6-Chloropyridin-3-yl)methyl]-2,5-dimethyl-7-[(2,3,6-trifluorobenzyl)oxy]pyrazolo[1,5-a]pyridine-3-carboxamide], the “MEC (minimum effective concentration)” value was determined as 0.3 µM.

On to `Cc1cc(OCc2c(F)cccc2F)n2nc(C)c(C(=O)N[C@H]3C[C@H]4CN(C)CCN4C3)c2c1` [Example 113, 7-[(2,6-Difluorobenzyl)oxy]-2,5-dimethyl-N-[(7S,8aS)-2-methyloctahydropyrrolo[1,2-a]pyrazin-7-yl]pyrazolo[1,5-a]pyridine-3-carboxamide], for which the “MEC (minimum effective concentration)” value stood at 3.0 µM.
